Reference: patent publication US20080070867A1, “2-Imidazolone and 2-Imidazolidinone Heterocyclic Inhibitors of Tyrosine Phosphatases” (Metabasis Therapeutics, Inc., priority 2005, published 2008)

Molecular target: T1, Human recombinant PTP-1B (Homo sapiens, UniProt P18031)
T1 construct: Human recombinant PTP-1B, containing amino acids 1-321, fused to GST enzyme; GST (glutathione S-transferase)
T1 sequence (P18031 1-321): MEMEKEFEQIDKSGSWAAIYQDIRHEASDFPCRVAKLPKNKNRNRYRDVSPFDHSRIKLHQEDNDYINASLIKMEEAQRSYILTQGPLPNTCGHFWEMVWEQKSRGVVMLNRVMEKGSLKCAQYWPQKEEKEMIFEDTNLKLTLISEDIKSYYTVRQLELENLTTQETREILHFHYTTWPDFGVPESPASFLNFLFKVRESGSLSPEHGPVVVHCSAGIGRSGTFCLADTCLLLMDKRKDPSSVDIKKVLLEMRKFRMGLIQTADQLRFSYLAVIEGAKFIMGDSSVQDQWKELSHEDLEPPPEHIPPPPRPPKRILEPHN
Experiment: Assay for PTP-1B Activity (pNPP substrate)
Type: biochemical
Settings: human recombinant PTP-1B (1-321) GST fusion, 2 mM pNPP, pH 7.4, 30° C., 20 min; read-out: Activity Code (IC50 range)
Method in brief: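 GST-fused human PTP-1B (aa 1-321) hydrolysed 2 mM pNPP in 50 mM HEPES pH 7.4, 100 mM NaCl, 2 mM EDTA, 3 mM DTT for 20 min at 30 °C, after a 2 min compound premix. K2CO3 stopped the reaction, with pNP read at 405 nm. Initial rate was plotted against inhibitor concentration.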

IC50 [nM]	Structure (SMILES)
100 to 249	CCOC(=O)C(C)(C)Oc1ccc(-c2cn(C3CC3)c(=O)n2Cc2ccc(C(F)(F)P(=O)(O)O)c(Br)c2)cc1 [Compound 73, 2-(4-{3-[3-Bromo-4-(difluoro-phosphono-methyl)-benzyl]-1-cyclopropyl-2-oxo-2,3-dihydro-1H-imidazol-4-yl}-phenoxy)-2-methyl-propionic acid ethyl ester]
< 99	CC(C)(Oc1ccc(-c2cn(C3CC3)c(=O)n2Cc2ccc(C(F)(F)P(=O)(O)O)c(Br)c2)cc1)C(=O)O [Compound 74, 2-(4-{3-[3-Bromo-4-(difluoro-phosphono-methyl)-benzyl]-1-cyclopropyl-2-oxo-2,3-dihydro-1H-imidazol-4-yl}-phenoxy)-2-methyl-propionic acid]
100 to 249	CCOC(=O)n1cc(-c2ccc(C#N)cc2)n(Cc2ccc(C(F)(F)P(=O)(O)O)c(Br)c2)c1=O [Compound 75, 3-[3-Bromo-4-(difluoro-phosphono-methyl)-benzyl]-4-(4-cyano-phenyl)-2-oxo-2,3-dihydro-imidazole-1-carboxylic acid ethyl ester]
250 to 2500	CC(C)(C)C(=O)OCOP(=O)(O)C(F)(F)c1ccc(Cn2c(-c3ccc(S(C)(=O)=O)cc3)cn(Cc3ccccc3)c2=O)cc1Br [Compound 76, 2,2-Dimethyl-propionic acid ({4-[3-benzyl-5-(4-methanesulfonyl-phenyl)-2-oxo-2,3-dihydro-imidazol-1-ylmethyl]-2-bromo-phenyl}-difluoro-methyl)-hydroxy-phosphinoyloxymethyl ester]
100 to 249	N#Cc1ccc(-c2c[nH]c(=O)n2Cc2ccc(C(F)(F)P(=O)(O)O)c(Br)c2)cc1 [Compound 78, ({2-Bromo-4-[5-(4-cyano-phenyl)-2-oxo-2,3-dihydro-imidazol-1-ylmethyl]-phenyl}-difluoro-methyl)-phosphonic acid]
100 to 249	CC(C)OC(=O)OC(C)OP(=O)(O)C(F)(F)c1ccc(Cn2c(-c3ccc(S(C)(=O)=O)cc3)cn(Cc3ccccc3)c2=O)cc1Br (centres unmarked) [Compound 79, ({4-[3-Benzyl-5-(4-methanesulfonyl-phenyl)-2-oxo-2,3-dihydro-imidazol-1-ylmethyl]-2-bromo-phenyl}-difluoro-methyl)-phosphonic acid mono-(1-isopropoxy-carbonyloxy-ethyl) ester]
2500 to 25000	Cn1cc(-c2ccc(C(=O)OCOC(=O)C(C)(C)C)cc2)n(Cc2ccc(C(F)(F)P(=O)(O)OCOC(=O)C(C)(C)C)c(Br)c2)c1=O [Compound 80, 4-[3-(3-Bromo-4-{[(2,2-dimethyl-propionyloxy-methoxy)-hydroxy-phosphoryl]-difluoro-methyl}-benzyl)-1-methyl-2-oxo-2,3-dihydro-1H-imidazol-4-yl]-benzoic acid 2,2-dimethyl-propionyloxymethyl ester]
250 to 2500	COC(=O)c1ccc(Cn2ccn(Cc3ccc(C(F)(F)P(=O)(O)O)c(Br)c3)c2=O)cc1 [Compound 81, 4-{3-[3-Bromo-4-(difluoro-phosphono-methyl)-benzyl]-2-oxo-2,3-dihydro-imidazol-1-ylmethyl}-benzoic acid methyl ester]
250 to 2500	COC(=O)COc1ccc(Cn2ccn(Cc3ccc(C(F)(F)P(=O)(O)O)c(Br)c3)c2=O)cc1Cl [Compound 82, (4-{3-[3-Bromo-4-(difluoro-phosphono-methyl)-benzyl]-2-oxo-2,3-dihydro-imidazol-1-ylmethyl}-2-chloro-phenoxy)-acetic acid methyl ester]
250 to 2500	O=C(O)COc1ccc(Cn2ccn(Cc3ccc(C(F)(F)P(=O)(O)O)c(Br)c3)c2=O)cc1Cl [Compound 83, (4-{3-[3-Bromo-4-(difluoro-phosphono-methyl)-benzyl]-2-oxo-2,3-dihydro-imidazol-1-ylmethyl}-2-chloro-phenoxy)-acetic acid]
2500 to 25000	CCCCCCCCCCCCCCCCOCCCOP(=O)(O)C(F)(F)c1ccc(Cn2c(-c3ccc(S(C)(=O)=O)cc3)c[nH]c2=O)cc1Br [Compound 84, ({2-Bromo-4-[5-(4-methanesulfonyl-phenyl)-2-oxo-2,3-dihydro-imidazol-1-ylmethyl]-phenyl}-difluoro-methyl)-phosphonic acid mono-(3-hexadecyloxy-propyl) ester]
250 to 2500	O=C(O)c1ccc(Cn2ccn(Cc3ccc(C(F)(F)P(=O)(O)O)c(Br)c3)c2=O)cc1 [Compound 85, 4-{3-[3-Bromo-4-(difluoro-phosphono-methyl)-benzyl]-2-oxo-2,3-dihydro-imidazol-1-ylmethyl}-benzoic acid]
250 to 2500	COC(=O)c1ccc(Cn2c(=O)n(Cc3ccc(C(F)(F)P(=O)(O)O)c(Br)c3)c3ccccc32)cc1 [Compound 86, 4-{3-[3-Bromo-4-(difluoro-phosphono-methyl)-benzyl]-2-oxo-2,3-dihydro-benzoimidazol-1-ylmethyl}-benzoic acid methyl ester]
2500 to 25000	O=c1[nH]ccn1Cc1ccc(C(F)(F)P(=O)(O)O)c(Br)c1 [Compound 87, {[2-Bromo-4-(2-oxo-2,3-dihydro-imidazol-1-ylmethyl)-phenyl]-difluoro-methyl}-phosphonic acid]
< 99	O=c1n(Cc2ccc(C(F)(F)P(=O)(O)O)c(Br)c2)ccn1Cc1ccc(C(F)(F)P(=O)(O)O)c(Br)c1 [Compound 88, [(2-Bromo-4-{3-[3-bromo-4-(difluoro-phosphono-methyl)-benzyl]-2-oxo-2,3-dihydro-imidazol-1-ylmethyl}-phenyl)-difluoro-methyl]-phosphonic acid]
250 to 2500	O=C1N(Cc2ccccc2)CCN1Cc1ccc(C(F)(F)P(=O)(O)O)c(Br)c1 [Compound 89, {[4-(3-Benzyl-2-oxo-imidazolidin-1-ylmethyl)-2-bromo-phenyl]-difluoro-methyl}-phosphonic acid]

Structure (SMILES)	IC50 [nM]
CC(C)(C)C(=O)OCOC(=O)COc1ccc(-c2cn(C3CC3)c(=O)n2Cc2ccc(C(F)(F)P(=O)(O)OCOC(=O)C(C)(C)C)c(Br)c2)cc1 [Compound 77, 2,2-Dimethyl-propionic acid 2-{4-[3-(3-bromo-4-{[(2,2-dimethyl-propionyloxy-methoxy)-hydroxy-phosphoryl]-difluoro-methyl}-benzyl)-1-cyclopropyl-2-oxo-2,3-dihydro-1H-imidazol-4-yl]-phenoxy}-acetoxymethyl ester]	250 to 2500
